Ends that are not written are not given here.
Experiments:
membrane GC = settings: literature refs 14, 15; cited from earlier work
soluble NPRB = assay: Binding to soluble NPRB extracellular domain (1-433) in concentrated conditioned medium; design: species or system human
Protocol: Soluble extracellular domain of NPRB was engineered by introducing a translation termination codon at position 434 to produce the 1-433 fragment of the NPRB sequence illustrated in FIG. 1. A stable cell line was developed in 293 cells as described for 293NPRBDKC, and clones were screened by binding of ^125 lBNP to receptor in condition medium. Control 293 cells or the stable cell line 293BCF.15 (NPRB cell free) were plated 24 hours prior to the addition of serum free conditioned medium. Medium was left on the cells for 72 hours then collected for analysis of the […] synthesized. The media was vacuum filtered through a […] filter (Millipore Corp) then concentrated 8-fold by ultrafiltration on an Amicon Corp centriprep YM30 membrane. A 0.5 ml sample of concentrated conditioned media was incubated for one hour in the presence of 0.25 mCi of ^125 l-pBNP(26) (2462 Ci/mmole) with (background binding) or without (total binding) 1.2 mM pBNP(26). A 1.0 ml sample of activated charcoal solution (Fuller et al. J. Biol. Chem. 264, 14179-14184 [1989]) was added to absorb unbound label and recovered by centrifugation. The supernatant (1.4 ml) was removed for determination of ^125 l-pBNP bound to receptor by gamma counting. Specific binding was calculated from the difference between total binding minus background binding. […]

[1] = biological target: T1, NPRB lacking its kinase and guanylyl cyclase domains (BDKC) (Homo sapiens, UniProt P20594); assay: Scatchard analysis of binding to 293 cells expressing NPRB less the kinase and cyclase domains (BDKC); settings: two hours at room temperature (21° C.), LIGAND program, read-out: dissociation constant (Kd)
T1 construct: expressed in transfected cells
T1 sequence (P20594 23-501): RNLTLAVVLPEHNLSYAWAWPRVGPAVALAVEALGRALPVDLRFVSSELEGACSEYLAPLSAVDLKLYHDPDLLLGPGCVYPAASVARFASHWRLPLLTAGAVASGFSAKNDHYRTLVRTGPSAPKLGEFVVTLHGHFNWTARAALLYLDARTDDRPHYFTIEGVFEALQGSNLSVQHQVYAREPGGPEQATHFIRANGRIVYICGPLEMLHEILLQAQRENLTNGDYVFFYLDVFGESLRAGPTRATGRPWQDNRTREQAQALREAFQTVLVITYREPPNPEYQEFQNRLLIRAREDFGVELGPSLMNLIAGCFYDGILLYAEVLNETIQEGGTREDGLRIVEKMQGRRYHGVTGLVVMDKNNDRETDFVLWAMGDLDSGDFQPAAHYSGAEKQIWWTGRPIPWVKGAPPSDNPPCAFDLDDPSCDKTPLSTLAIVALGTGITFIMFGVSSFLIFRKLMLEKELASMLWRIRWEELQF
Excerpt: Scatchard analysis was used to determine the binding affinities of the natriuretic peptides for NPRB. An expression vector using pRK was constructed such that the NPRB lacked its kinase and guanylyl cyclase domains. This mutation was effected by introduction of a termination codon at condo 480 of the mature NPRB protein. A recombinant cell line expressing NPRB less the kinase and cyclase domains (BDKC) was developed by calcium phosphate transfection of 293 cells as described above. These stable cell lines were screened for expression of BDKC by binding of porcine BNP which contained 26 amino acids (^125 l-pBNP[26]). […] Binding was allowed to proceed to equilibrium by incubation for two hours at room temperature (21° C.), the bound ^125 l-pBNP(26) was separated from unbound by centrifugation for 7 minutes at 4° C. The supernatant was aspirated and the cell pellet was counted in a gamma counter for ^125 l quantitation. Background binding was subtracted from total binding to give specific binding and the specific binding vs. dose of ^125 l-pBNA data was analyzed by the LIGAND program of Munson and Rodbard (Analytical Biochemistry 107, 220-239 [1980]). The results shown are in FIG. 5.

[2] = biological target: 130 kDa ANP receptor-GC from adrenal glomerulosa; settings: literature refs 10, 11; cited from earlier work
[3] = tested on: active site of protein kinases; settings: literature refs 12, 13; cited from earlier work

Molecule: Nc1ncnc2c1ncn2[C@@H]1O[C@H](COP(=O)(O)OP(=O)(O)OP(=O)(O)O)[C@@H](O)[C@H]1O [ATP]
- effect on Vmax of membrane GC in response to ANP stimulation (membrane GC): increasing the Vmax of membrane GC in response to ANP stimulation

Molecule: ^125 l-pBNP(26): porcine BNP which contained 26 amino acids, ^125 l labelled (DSGCFGRRLDRIGSLSGLGCNVLRRY; ends and bridges not checked; also: 125I label, position not given here; UniProt P07634 106-131, looked up)
- Specific binding to soluble NPRB (soluble NPRB; 0.25 mCi ^125 l-pBNP(26), one hour, 8-fold concentrated conditioned medium): 31,837 cpm
- Specific binding due to the recombinant soluble receptor protein (difference from control 293 cells) (soluble NPRB; difference between soluble NPRB and control 293 cells): 29,177 cpm
- Kd [1]: 0.0667 nM

Molecule: N=C(N)NC(=O)c1nc(Cl)c(N)nc1N [amiloride]
- effect on receptor conformation and Kd for ANP [2]: change in receptor conformation and a lowering of the Kd for ANP
- inhibition of ATP binding to the active site of protein kinases [3]: competitive inhibitor of ATP binding to the active site of protein kinases
